In PubChem BioAssay AID248 (DTP/NCI, 2004):
Several values for one entry are separate records, joined by “and”; a condition that tells them apart may be missing. Identical values can stand only once. Inconclusive results and toxic doses are left out. Rule as the data show it: active = T/C of 150% or more; inactive = T/C below 125%.

Test system: L1210 leukemia ip in BDF1 mice, survival T/C
Test: NCI In Vivo Anticancer Drug Screen. Data for tumor model L1210 Leukemia (intraperitoneal) in B6D2F1 (BDF1) mice
Conditions: endpoint: mean survival time, higher = longer survival
Procedure, shortened: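 Mice bearing the transplanted tumor received compound or vehicle. Survival of the treated group was divided by that of the vehicle-treated control group to give the ratio.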

[1] = dose: 100.0 mg/kg/injection, schedule: Q01DX009 (ip), vehicle: saline with Tween-80
[2] = dose: 100.0 mg/kg/injection, schedule: Q04DX003 (ip), vehicle: saline with Tween-80
[3] = dose: 200.0 mg/kg/injection, schedule: Q04DX003 (ip), vehicle: saline with Tween-80
[4] = dose: 100.0 mg/kg/injection, schedule: Q04DX003 (ip), vehicle: Klucel (hydroxypropylcellulose) (HPC)
[5] = dose: 200.0 mg/kg/injection, schedule: Q04DX003 (ip), vehicle: Klucel (hydroxypropylcellulose) (HPC)
[6] = dose: 400.0 mg/kg/injection, schedule: Q04DX003 (ip), vehicle: Klucel (hydroxypropylcellulose) (HPC)
[7] = dose: 200.0 mg/kg/injection, schedule: Q01DX009 (ip), vehicle: saline with Tween-80
[8] = dose: 100.0 mg/kg/injection, schedule: Q01DX001 (ip), vehicle: saline
[9] = dose: 400.0 mg/kg/injection, schedule: Q01DX001 (ip), vehicle: saline
[10] = dose: 200.0 mg/kg/injection, schedule: Q01DX001 (ip), vehicle: saline
[11] = dose: 50.0 mg/kg/injection, schedule: Q01DX001 (ip), vehicle: saline
[12] = dose: 400.0 mg/kg/injection, schedule: Q04DX003 (ip), vehicle: saline with Tween-80

Measured: T/C

CCC[n+]1c(C)oc2ccc(-c3ccccc3)cc21
inactive: dose: 50.0 mg/kg/injection, schedule: Q01DX009 (ip), vehicle: saline with Tween-80 97 % of control | dose: 100.0 mg/kg/injection, schedule: Q01DX001 (ip), vehicle: saline with Tween-80 94 % of control | [1] 101 % of control | dose: 200.0 mg/kg/injection, schedule: Q01DX001 (ip), vehicle: saline with Tween-80 99 % of control | dose: 400.0 mg/kg/injection, schedule: Q01DX001 (ip), vehicle: saline with Tween-80 90 % of control

CCSc1nc(C)cc(Cl)n1
inactive: [2] 100 % of control | [3] 93 % of control

c1ccc(-c2c[nH]c(-c3ccccc3)c2)cc1
inactive: [4] 124 % of control | dose: 200.0 mg/kg/injection, schedule: Q01DX001 (ip), vehicle: steriod suspending solution 103 % of control | [5] 100 % of control | dose: 400.0 mg/kg/injection, schedule: Q01DX001 (ip), vehicle: steriod suspending solution 103 % of control | [6] 94 % of control

COC(=O)C12Oc3ccc(-c4ccc5c(c4O)C(O)=C4C(=O)CC(C)C(O)C4(C(=O)OC)O5)c(O)c3C(O)=C1C(=O)CC(C)C2O (stereo not drawn)
inactive: dose: 1.56 mg/kg/injection, schedule: Q01DX009 (ip), vehicle: saline with Tween-80 104 % of control | dose: 3.13 mg/kg/injection, schedule: Q01DX009 (ip), vehicle: saline with Tween-80 100 % of control | dose: 6.25 mg/kg/injection, schedule: Q01DX009 (ip), vehicle: saline with Tween-80 105 % of control and 91 % of control | dose: 12.5 mg/kg/injection, schedule: Q04DX003 (ip), vehicle: saline with Tween-80 98 % of control | dose: 25.0 mg/kg/injection, schedule: Q04DX003 (ip), vehicle: saline with Tween-80 110 % of control | dose: 50.0 mg/kg/injection, schedule: Q04DX003 (ip), vehicle: saline with Tween-80 104 % of control

C/C(=N/NC(=O)CC#N)c1ccccc1
inactive: dose: 100.0 mg/kg/injection, schedule: Q04DX002 (ip), vehicle: saline with Tween-80 101 % of control | dose: 200.0 mg/kg/injection, schedule: Q04DX002 (ip), vehicle: saline with Tween-80 104 % of control | dose: 400.0 mg/kg/injection, schedule: Q04DX002 (ip), vehicle: saline with Tween-80 95 % of control

CC(C)(C)SC(C)(C)C
inactive: [1] 96 % of control | [7] 96 % of control | dose: 400.0 mg/kg/injection, schedule: Q01DX009 (ip), vehicle: saline with Tween-80 96 % of control

O=C(Cc1ccccc1)c1ccc(N2CCOCC2)cc1
inactive: [8] 89 % of control | [9] 86 % of control

Cc1ccccc1N1CCN(c2c3c(nc4ccccc24)CCCCC3)CC1
inactive: [8] 93 % of control | [9] 93 % of control

CCOC(=O)CSC1=NCCN1
inactive: [8] 105 % of control | [10] 113 % of control | [9] 105 % of control

CCOC(=O)NC(C(N)=O)C(N)=O
inactive: [4] 103 % of control | [5] 108 % of control | [6] 106 % of control

CCC[CH2][Sn]([CH2]CC#N)([CH2]CCC)[CH2]CCC
inactive: dose: 25.0 mg/kg/injection, schedule: Q04DX002 (ip), vehicle: saline 97 % of control | dose: 50.0 mg/kg/injection, schedule: Q04DX002 (ip), vehicle: saline 94 % of control

CCCCOP(=O)(N1CC1C)N1CC1C (stereo not drawn)
inactive: dose: 6.25 mg/kg/injection, schedule: Q04DX003 (ip), vehicle: acetone 109 % of control | dose: 12.5 mg/kg/injection, schedule: Q04DX003 (ip), vehicle: acetone 115 % of control | dose: 25.0 mg/kg/injection, schedule: Q01DX001 (ip), vehicle: saline 123 % of control | dose: 75.0 mg/kg/injection, schedule: Q04DX003 (ip), vehicle: acetone 91 % of control
active: dose: 25.0 mg/kg/injection, schedule: Q04DX003 (ip), vehicle: acetone 153 % of control and 168 % of control | dose: 37.5 mg/kg/injection, schedule: Q04DX003 (ip), vehicle: acetone 163 % of control | [11] 164 % of control | dose: 66.0 mg/kg/injection, schedule: Q01DX001 (ip), vehicle: acetone 158 % of control | dose: 100.0 mg/kg/injection, schedule: Q01DX001 (ip), vehicle: acetone 169 % of control | [8] 159 % of control and 192 % of control | dose: 150.0 mg/kg/injection, schedule: Q01DX001 (ip), vehicle: acetone 189 % of control | dose: 150.0 mg/kg/injection, schedule: Q01DX001 (ip), vehicle: saline 168 % of control

O=C(CCCC(=O)NNC(=O)Nc1ccc(Br)cc1)NNC(=O)Nc1ccc(Br)cc1
inactive: [11] 93 % of control | [8] 100 % of control | [10] 96 % of control | [9] 96 % of control

O=C(Nc1nc2ccccc2[nH]1)C(F)(F)F
inactive: [8] 97 % of control | [10] 100 % of control | [9] 97 % of control

Cc1ccnc(N=Cc2ccccc2)c1
inactive: [11] 89 % of control | [8] 101 % of control

C=C1C(=O)O[C@H]2C=C(C)[C@H]3[C@@H](OC(C)=O)C[C@@](C)(O)[C@@H]3C[C@H]12
inactive: dose: 50.0 mg/kg/injection, schedule: Q01DX Z (ip), vehicle: carboxymethylcellulose (CMC) 94 % of control

Cc1cc2nc3c(=O)[nH]c(=O)nc-3n(CC(O)C(O)C(O)C(O)CO)c2cc1C (stereo not drawn)
inactive: dose: 14.12 mg/kg/injection, schedule: Q01DX Z (ip), vehicle: carboxymethylcellulose (CMC) 91 % of control | dose: 25.0 mg/kg/injection, schedule: Q01DX015 (ip), vehicle: saline 100 % of control | dose: 28.25 mg/kg/injection, schedule: Q01DX Z (ip), vehicle: carboxymethylcellulose (CMC) 93 % of control | dose: 50.0 mg/kg/injection, schedule: Q01DX015 (ip), vehicle: saline 96 % of control | dose: 56.5 mg/kg/injection, schedule: Q01DX Z (ip), vehicle: carboxymethylcellulose (CMC) 90 % of control | dose: 100.0 mg/kg/injection, schedule: Q01DX015 (ip), vehicle: saline 96 % of control | dose: 100.0 mg/kg/injection, schedule: Q01DX Z (ip), vehicle: carboxymethylcellulose (CMC) 97 % of control | dose: 113.0 mg/kg/injection, schedule: Q01DX Z (ip), vehicle: carboxymethylcellulose (CMC) 89 % of control | dose: 200.0 mg/kg/injection, schedule: Q01DX015 (ip), vehicle: saline 97 % of control and 98 % of control | dose: 200.0 mg/kg/injection, schedule: Q01DX Z (ip), vehicle: carboxymethylcellulose (CMC) 97 % of control | dose: 400.0 mg/kg/injection, schedule: Q01DX001 (ip), vehicle: acetone 103 % of control | dose: 400.0 mg/kg/injection, schedule: Q01DX015 (ip), vehicle: saline 92 % of control | dose: 400.0 mg/kg/injection, schedule: Q01DX Z (ip), vehicle: carboxymethylcellulose (CMC) 94 % of control | dose: 800.0 mg/kg/injection, schedule: Q01DX001 (ip), vehicle: acetone 95 % of control | dose: 800.0 mg/kg/injection, schedule: Q01DX Z (ip), vehicle: carboxymethylcellulose (CMC) 90 % of control

Cc1ccc2c(c1)=N/C(=N\c1nc(O)c(O)[nH]1)N=2
inactive: [2] 97 % of control | [3] 108 % of control | [12] 103 % of control

Cc1nc2c(N)nn(C)c2nc1C
inactive: [1] 96 % of control | [7] 102 % of control

O=C(NC(CO)C(=O)OCc1ccccc1)OCc1ccccc1 (stereo not drawn)
inactive: dose: 100.0 mg/kg/injection, schedule: Q01DX009 (ip), vehicle: Klucel (hydroxypropylcellulose) (HPC) 104 % of control | [4] 104 % of control | [2] 98 % of control | dose: 200.0 mg/kg/injection, schedule: Q01DX009 (ip), vehicle: Klucel (hydroxypropylcellulose) (HPC) 102 % of control | [5] 101 % of control | [3] 95 % of control | dose: 400.0 mg/kg/injection, schedule: Q01DX009 (ip), vehicle: Klucel (hydroxypropylcellulose) (HPC) 102 % of control | [6] 90 % of control | [12] 90 % of control

COP(=O)(OC)C1C2CC3C(C2)C31 (stereo not drawn)
inactive: dose: 100.0 mg/kg/injection, schedule: Q04DX003 (ip), vehicle: acetone 103 % of control | dose: 200.0 mg/kg/injection, schedule: Q04DX003 (ip), vehicle: acetone 97 % of control | dose: 400.0 mg/kg/injection, schedule: Q04DX003 (ip), vehicle: acetone 100 % of control

CC1CCC(C2=CSC3CCCCC3N2)C(C)C1 (stereo not drawn)
inactive: dose: 100.0 mg/kg/injection, schedule: Q04DX002 (ip), vehicle: other 111 % of control | dose: 200.0 mg/kg/injection, schedule: Q04DX002 (ip), vehicle: other 101 % of control | dose: 400.0 mg/kg/injection, schedule: Q04DX002 (ip), vehicle: other 97 % of control
